According to patent US20150132788A1, “ESTABLISHING THE VIABILITY OF BIOLOGICAL SAMPLES” (Ovamed GmbH, priority 2012, published 2015):

Experiments:
eggs of Trichuris suis = assay: Dyeing of Trichuris suis eggs (TSO) with ageladine A, fluorescence microscopy with UV excitation
Description: Embryonated eggs of Trichuris suis (TSO) according to specification of Ovamed GmbH. The nematode eggs are stored in the refrigerator at from 4 to 8° C. in a phosphate buffer at pH 5 with addition of potassium sorbate. For the tests, the TSO were washed several times in 1×DPBS (re-buffering) and adjusted to a concentration of 1000 TSO/ml.
Ageladine stock solution: 10 mM in MeOH (90%); 1 μl of ageladine was combined with 1000 μl of TSO suspension (see 2.5) in 15 ml tubes. The contents were mixed by gentle shaking and incubated for 10 minutes at ambient temperature in the dark.
The ISO were washed three times in DPBS after being dyed with Ageladine A (see 2.6.2). 10 μl of the samples were placed on object carriers with recesses and covered with glass covers. The object carriers were observed under the microscope Leica SP5 MP with and without UV excitation.

[1] = system: sensitive cells (for example, PC12); conditions: cited from earlier work
[2] = cited from earlier work
[3] = cited from earlier work; remark: listed apart in the source

With Nc1nc2ccnc(-c3cc(Br)c(Br)[nH]3)c2[nH]1 [ageladine A] the “absorption of the dye by eggs of the whipworm” value (eggs of Trichuris suis; eggs normally absorb dyes very poorly) was “very rapid”, the “proportion of TSO exhibiting fluorescence after incubation with ageladine A” value (eggs of Trichuris suis; excitation 370 nm, detection 410-480 nm, 10 minutes incubation at ambient temperature) was “a small percentage” and the “correlation between eggs marked as defective by morphological criteria and fluorescing eggs” value (eggs of Trichuris suis; optical blind test, fourteen TSO, UV excitation) was “high level of correlation”. The “fluorescence in degenerated eggs of Trichuris suis” value (eggs of Trichuris suis; ultraviolet excitation, multi-photon microscopy) was “fluoresces”, the toxicity ([1]; sensitive cells (for example, PC12), long incubation) was “not toxic” and the “cell toxicity after a long incubation time” value ([1]; whipworm eggs, long incubation time) was “not cell-toxic”. The “membrane permeability in the charged (protonated, acidic medium) state” value ([2]; charged state) was “membrane-impermeable”, the membrane permeability [2] was “high level of membrane-permeability” and the “membrane permeability in the uncharged (alkaline medium) state” value ([2]; uncharged state) was “very rapidly crosses many cell membranes”. The “pH of greatest fluorescence” value ([3]; fluorescence decreases as the pH value increases) was ~4 pH, the “stability of the dyeing” value ([3]; intensive dyes in cells, tissues, organisms) was “stable over hours and days” and the tendency to fade ([3]; relatively long incubation times) was “scarcely has any tendency to fade”.
